In US20230103791A1 (GLAXOSMITHKLINE INTELLECTUAL PROPERTY DEVELOPMENT LIMITED, priority 2019, published 2023):

Target: T1, human Nav1.8 (Homo sapiens, UniProt Q9Y5Y9)
T1 construct: expressed in transfected cells; host or cells: HEK293 (HEK293-Nav1.8)
Assay: Nav1.8 sodium channels assay, QPatch 48 HTX electrophysiology in HEK293-Nav1.8 cells
Assay type: cell-based
Conditions: Table 1; HEK293-Nav1.8, QPatch 48 HTX, half inactivation state voltage protocol (V1/2); single run or average of two or more runs; read-out: Nav1.8 pIC50 (converted)
Summary of the method: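 HEK293 cells co-expressing human Nav1.8, Navβ1 and TREK1 were voltage-clamped on QPatch 48 HTX. The V1/2 protocol ran at 0.07 Hz: hold −100 mV, 20 ms to 0 mV, 8 s at −46 mV, 20 ms at −100 mV, then 20 ms at 0 mV (P2). P2 current was fitted over 6-8 concentrations for IC50, with vehicle wells used to correct for run-down.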

T1 sequence (Q9Y5Y9 whole entry): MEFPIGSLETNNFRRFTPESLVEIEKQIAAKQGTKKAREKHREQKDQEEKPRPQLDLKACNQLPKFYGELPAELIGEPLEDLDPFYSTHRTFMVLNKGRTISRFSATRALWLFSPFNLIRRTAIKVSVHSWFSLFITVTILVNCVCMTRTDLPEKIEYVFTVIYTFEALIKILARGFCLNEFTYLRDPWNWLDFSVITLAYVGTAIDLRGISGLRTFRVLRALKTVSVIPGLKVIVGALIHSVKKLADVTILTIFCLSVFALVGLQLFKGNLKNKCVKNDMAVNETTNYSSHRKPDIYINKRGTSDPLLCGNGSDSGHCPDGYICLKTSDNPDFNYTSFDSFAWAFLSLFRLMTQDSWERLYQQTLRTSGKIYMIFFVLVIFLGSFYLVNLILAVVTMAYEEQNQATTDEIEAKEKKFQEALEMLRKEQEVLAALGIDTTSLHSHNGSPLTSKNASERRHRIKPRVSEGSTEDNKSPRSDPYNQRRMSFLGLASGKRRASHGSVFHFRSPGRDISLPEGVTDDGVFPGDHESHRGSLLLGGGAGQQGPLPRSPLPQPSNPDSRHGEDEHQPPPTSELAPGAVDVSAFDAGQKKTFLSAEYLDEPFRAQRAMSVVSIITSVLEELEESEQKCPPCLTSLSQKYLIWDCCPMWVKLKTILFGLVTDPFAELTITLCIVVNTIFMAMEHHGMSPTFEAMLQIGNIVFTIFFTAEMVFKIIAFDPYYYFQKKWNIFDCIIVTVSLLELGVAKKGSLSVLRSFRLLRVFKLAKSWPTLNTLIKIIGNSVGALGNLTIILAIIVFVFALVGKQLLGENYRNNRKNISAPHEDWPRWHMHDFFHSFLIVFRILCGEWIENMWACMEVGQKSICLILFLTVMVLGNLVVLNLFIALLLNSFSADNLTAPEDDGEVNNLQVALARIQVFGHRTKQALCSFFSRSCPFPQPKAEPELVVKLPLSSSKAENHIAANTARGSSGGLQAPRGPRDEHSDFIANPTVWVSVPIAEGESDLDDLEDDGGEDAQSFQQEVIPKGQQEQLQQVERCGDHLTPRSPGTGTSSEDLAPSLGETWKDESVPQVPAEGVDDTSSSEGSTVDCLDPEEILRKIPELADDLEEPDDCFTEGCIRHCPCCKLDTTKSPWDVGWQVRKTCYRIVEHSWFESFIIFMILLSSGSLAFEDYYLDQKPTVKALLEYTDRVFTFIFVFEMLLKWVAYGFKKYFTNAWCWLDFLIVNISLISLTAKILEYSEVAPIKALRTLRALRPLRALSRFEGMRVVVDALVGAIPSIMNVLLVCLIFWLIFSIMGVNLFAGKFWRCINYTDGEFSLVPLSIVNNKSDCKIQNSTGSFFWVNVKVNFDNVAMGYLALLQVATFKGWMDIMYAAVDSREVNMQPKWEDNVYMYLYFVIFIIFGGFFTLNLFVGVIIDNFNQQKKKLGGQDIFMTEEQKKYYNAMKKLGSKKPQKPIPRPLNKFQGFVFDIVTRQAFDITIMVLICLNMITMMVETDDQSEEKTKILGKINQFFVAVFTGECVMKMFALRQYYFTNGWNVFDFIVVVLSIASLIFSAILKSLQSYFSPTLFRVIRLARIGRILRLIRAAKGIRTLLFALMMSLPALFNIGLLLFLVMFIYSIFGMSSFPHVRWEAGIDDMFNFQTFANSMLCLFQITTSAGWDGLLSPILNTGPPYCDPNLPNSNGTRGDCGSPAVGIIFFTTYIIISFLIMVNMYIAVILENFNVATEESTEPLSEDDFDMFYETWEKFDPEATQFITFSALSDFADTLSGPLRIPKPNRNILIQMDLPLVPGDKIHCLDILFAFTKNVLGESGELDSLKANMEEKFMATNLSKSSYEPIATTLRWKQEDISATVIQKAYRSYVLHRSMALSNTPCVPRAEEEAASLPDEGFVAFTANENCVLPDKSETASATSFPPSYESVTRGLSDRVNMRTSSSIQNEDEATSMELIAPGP
T1 sequence (Q07699 19-218 partner): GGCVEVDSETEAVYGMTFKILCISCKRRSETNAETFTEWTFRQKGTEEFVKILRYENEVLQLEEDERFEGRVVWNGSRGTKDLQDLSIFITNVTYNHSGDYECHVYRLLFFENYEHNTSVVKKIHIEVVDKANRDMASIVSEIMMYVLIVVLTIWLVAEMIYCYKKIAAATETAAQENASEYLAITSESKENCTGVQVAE

SMILES	IC50 [nM]
Cc1cc(OC(F)(F)F)ccc1N1CN(c2ccc(=O)[nH]c2C)C(=O)c2cc(C(F)(F)F)cnc21 [drawing 274, 1-(2-methyl-4-(trifluoromethoxy)phenyl)-3-(2-methyl-6-oxo-1,6-dihydropyridin-3-yl)-6-(trifluoromethyl)-2,3-dihydropyrido[2,3-d]pyrimidin-4(1H)-one]	25.1
Cc1cc(F)ccc1N1c2cc(C(F)(F)F)ccc2C(=O)N(c2ccc(=O)[nH]c2)C1C (stereo not drawn) [drawing 275, 1-(4-fluoro-2-methylphenyl)-2-methyl-3-(6-oxo-1,6-dihydropyridin-3-yl)-7-(trifluoromethyl)-2,3-dihydroquinazolin-4(1H)-one]	1260
COc1cc(F)ccc1N1CN(c2ccc(=O)[nH]c2)C(=O)c2c1cccc2C(F)(F)F [drawing 281, 1-(4-fluoro-2-methoxyphenyl)-3-(6-oxo-1,6-dihydropyridin-3-yl)-5-(trifluoromethyl)-2,3-dihydroquinazolin-4(1H)-one]	6310
Cc1[nH]c(=O)ccc1N1CN(c2ccc(F)cc2)c2cc(C(F)(F)F)ccc2C1=O [drawing 285, 1-(4-fluorophenyl)-3-(2-methyl-6-oxo-1,6-dihydropyridin-3-yl)-7-(trifluoromethyl)-2,3-dihydroquinazolin-4(1H)-one]	126
Cc1cc(F)ccc1N1CN(c2ccc(=O)[nH]c2C)C(=O)c2cc(C(F)(F)F)ccc21 [drawing 286, 1-(4-fluoro-2-methylphenyl)-3-(2-methyl-6-oxo-1,6-dihydropyridin-3-yl)-6-(trifluoromethyl)-2,3-dihydroquinazolin-4(1H)-one]	15.8
Cc1cc(F)ccc1N1CN(c2ccc(=O)[nH]c2C)C(=O)c2ccc(C(F)(F)F)nc21 [drawing 288, 1-(4-fluoro-2-methylphenyl)-3-(2-methyl-6-oxo-1,6-dihydropyridin-3-yl)-7-(trifluoromethyl)-2,3-dihydropyrido[2,3-d]pyrimidin-4(1H)-one]	251
Cc1ncccc1N1CN(c2ccc(=O)[nH]c2C)C(=O)c2ccc(C(F)(F)F)cc21 [drawing 289, 3-(2-methyl-6-oxo-1,6-dihydropyridin-3-yl)-1-(2-methylpyridin-3-yl)-7-(trifluoromethyl)-2,3-dihydroquinazolin-4(1H)-one]	2510
Cc1[nH]c(=O)ccc1N1CN(c2ccc(F)cc2C(C)C)c2cc(C(F)(F)F)ccc2C1=O [drawing 290, 1-(4-fluoro-2-isopropylphenyl)-3-(2-methyl-6-oxo-1,6-dihydropyridin-3-yl)-7-(trifluoromethyl)-2,3-dihydroquinazolin-4(1H)-one]	6.31
CCc1[nH]c(=O)ccc1N1CN(c2ccc(F)cc2C)c2cc(C(F)(F)F)ccc2C1=O [drawing 291, 3-(2-ethyl-6-oxo-1,6-dihydropyridin-3-yl)-1-(4-fluoro-2-methylphenyl)-7-(trifluoromethyl)-2,3-dihydroquinazolin-4(1H)-one]	20
Cc1[nH]c(=O)ccc1N1CN(c2ccc(F)cc2)c2ccccc2C1=O [drawing 294, 1-(4-fluorophenyl)-3-(2-methyl-6-oxo-1,6-dihydropyridin-3-yl)-2,3-dihydroquinazolin-4(1H)-one]	5010
Cc1ccccc1N1CN(c2ccc(=O)[nH]c2C)C(=O)c2ccccc21 [drawing 295, 3-(2-methyl-6-oxo-1,6-dihydropyridin-3-yl)-1-(o-tolyl)-2,3-dihydroquinazolin-4(1H)-one]	631

Second part, the compound after the results:

IC50 [nM]	SMILES
501	O=C1c2ccc(C(F)(F)F)cc2N(c2ccc(F)cc2Cl)CN1c1ccc(=O)[nH]c1 [drawing 276, 1-(2-chloro-4-fluorophenyl)-3-(6-oxo-1,6-dihydropyridin-3-yl)-7-(trifluoromethyl)-2,3-dihydroquinazolin-4(1H)-one]
6310	O=C1c2ccc(C(F)(F)F)cc2N(c2ccc(F)cc2OCCO)CN1c1ccc(=O)[nH]c1 [drawing 277, 1-(4-fluoro-2-(2-hydroxyethoxy)phenyl)-3-(6-oxo-1,6-dihydropyridin-3-yl)-7-(trifluoromethyl)-2,3-dihydroquinazolin-4(1H)-one]
794	O=C1c2ccc(C(F)(F)F)cc2N(c2ccc(F)cc2F)CN1c1ccc(=O)[nH]c1 [drawing 278, 1-(2,4-difluorophenyl)-3-(6-oxo-1,6-dihydropyridin-3-yl)-7-(trifluoromethyl)-2,3-dihydroquinazolin-4(1H)-one]
1580	Cc1cc(F)ccc1N1CN(c2ccc(=O)[nH]c2)C(=O)c2ccc(C#N)cc21 [drawing 279, 1-(4-fluoro-2-methylphenyl)-4-oxo-3-(6-oxo-1,6-dihydropyridin-3-yl)-1,2,3,4-tetrahydroquinazoline-7-carbonitrile]
251	CCc1cc(F)ccc1N1CN(c2ccc(=O)[nH]c2)C(=O)c2ccc(C(F)(F)F)cc21 [drawing 280, 1-(2-ethyl-4-fluorophenyl)-3-(6-oxo-1,6-dihydropyridin-3-yl)-7-(trifluoromethyl)-2,3-dihydroquinazolin-4(1H)-one]
6310	Cc1cc(F)ccc1N1CN(c2ccc(=O)[nH]c2)C(=O)c2ccc(C(F)(F)F)c(Cl)c21 [drawing 282, 8-chloro-1-(4-fluoro-2-methylphenyl)-3-(6-oxo-1,6-dihydropyridin-3-yl)-7-(trifluoromethyl)-2,3-dihydroquinazolin-4(1H)-one]
316	Cc1cc(Br)ccc1N1CN(c2ccc(=O)[nH]c2)C(=O)c2ccc(C(F)(F)F)cc21 [drawing 283, 1-(4-bromo-2-methylphenyl)-3-(6-oxo-1,6-dihydropyridin-3-yl)-7-(trifluoromethyl)-2,3-dihydroquinazolin-4(1H)-one]
6310	Cc1cc(F)ccc1N1CN(c2ccc(=O)[nH]c2)C(=O)c2ccc(C(F)(F)F)c(C)c21 [drawing 284, 1-(4-fluoro-2-methylphenyl)-8-methyl-3-(6-oxo-1,6-dihydropyridin-3-yl)-7-(trifluoromethyl)-2,3-dihydroquinazolin-4(1H)-one]
63.1	Cc1cc(C#N)ccc1N1CN(c2ccc(=O)[nH]c2C)C(=O)c2ccc(C(F)(F)F)cc21 [drawing 287, 3-methyl-4-(3-(2-methyl-6-oxo-1,6-dihydropyridin-3-yl)-4-oxo-7-(trifluoromethyl)-3,4-dihydroquinazolin-1(2H)-yl)benzonitrile]
794	Cc1cc(F)ccc1N1CN(c2ccc(=O)[nH]c2Cl)C(=O)c2ccc(C(F)(F)F)cc21 [drawing 292, 3-(2-chloro-6-oxo-1,6-dihydropyridin-3-yl)-1-(4-fluoro-2-methylphenyl)-7-(trifluoromethyl)-2,3-dihydroquinazolin-4(1H)-one]
10	Cc1cc(F)ccc1N1CN(c2ccc(=O)[nH]c2C)C(=O)c2cc(Cl)ccc21 [drawing 293, 6-chloro-1-(4-fluoro-2-methylphenyl)-3-(2-methyl-6-oxo-1,6-dihydropyridin-3-yl)-2,3-dihydroquinazolin-4(1H)-one]
50.1	Cc1ccc2c(c1)C(=O)N(c1ccc(=O)[nH]c1C)CN2c1ccc(F)cc1C [drawing 296, 1-(4-fluoro-2-methylphenyl)-6-methyl-3-(2-methyl-6-oxo-1,6-dihydropyridin-3-yl)-2,3-dihydroquinazolin-4(1H)-one]
63.1	Cc1cc(F)ccc1N1CN(c2ccc(=O)[nH]c2C)C(=O)c2ccccc21 [drawing 297, 1-(4-fluoro-2-methylphenyl)-3-(2-methyl-6-oxo-1,6-dihydropyridin-3-yl)-2,3-dihydroquinazolin-4(1H)-one]
